Laboratory results reported in ChEMBL document CHEMBL1154174, “Phytochemical investigation of labdane diterpenes from the rhizomes of Hedychium spicatum and their cytotoxic activity” (Bioorg Med Chem Lett, 2009).

How the values were obtained:
Assay type in all cases: functional, cell-based; call rule not given here
[1] = test system: HL-60; experiment: Cytotoxicity against human HL60 cells by MTT assay
[2] = test system: A549; experiment: Cytotoxicity against human A549 cells by MTT assay
[3] = test system: THP-1; experiment: Cytotoxicity against human THP1 cells by MTT assay
[4] = test system: A-375; experiment: Cytotoxicity against human A375 cells by MTT assay
[5] = Homo sapiens, HL-60, read-out: IC50

Row | Compound | IC50 ([1]; hl-60) | IC50 [2] [µM] | IC50 [3] [µM] | IC50 [4] [µM] | IC50 [1, 5] [µM]
1 | C=C1CC[C@H]2C(C)(C)CCC[C@]2(C)[C@H]1C | Not Active | 61.3 | 53.9 | 50.2 | 
2 | CC1(C)CCC[C@]2(C)[C@@H](/C=C/c3ccoc3)C(C=O)=C(O)C(=O)[C@@H]12 |  | 37.9 | 23.4 | 21.6 | 16
3 | CCOC(=O)/C=C/c1ccc(OC)cc1 [4-METHOXY ETHYL CINNAMATE] |  |  | 33.5 | 31.3 | 29.6
4 | O=c1cc(-c2ccccc2)oc2cc(O)cc(O)c12 [CHRYSIN] |  | 19.9 | 23.4 | 29.7 | 34
5 | C=C1CC[C@H]2C(C)(C)CCC[C@]2(C)[C@H]1/C=C/c1ccoc1 [CORONARIN E] |  | 53.3 | 34 | 36.6 | 31.2
6 | CCOC(=O)/C=C/c1ccccc1 [ETHYL CINNAMATE] |  | 50.4 | 41.2 | 31.6 | 35.7
7 | COc1cc([C@@H]2c3cc4c(cc3[C@@H](O[C@@H]3O[C@@H]5CO[C@@H](C)O[C@H]5[C@H](O)[C@H]3O)[C@H]3COC(=O)[C@H]23)OCO4)cc(OC)c1O [ETOPOSIDE] |  |  | 1.83 |  | 2.16
8 | CC1=CC(=O)[C@H]2C(C)(C)CCC[C@]2(C)[C@H]1/C=C/C(=O)O [SPICATANOIC ACID] |  | 52 | 39 | 56.1 | 69.4
9 | CC1(C)CCC[C@]2(C)[C@@H](/C=C/c3ccoc3)C(CO)=CC(=O)[C@@H]12 [YUNNACORONARIN D] |  | 51.2 | 59.5 | 41.9 | 36.4
